Active and inactive are the calls of the source. The calls are words filed in the database; no cut-off is given here.
Tests used:
Type in all cases: functional, cell-based
[1] = tested on: Sf9; assay: Reduction of ATP level in Spodoptera frugiperda (fall armyworm) Sf9 cells at 0.1 to 1 uM after 6 to 24 hr by luminescent cell viability assay
[2] = tested on: Sf9; assay: Increase of ATP level in Spodoptera frugiperda (fall armyworm) Sf9 cells at 10 uM after 6 to 24 hr by luminescent cell viability assay
[3] = tested on: Sf9; assay: Reduction of ATP level in Spodoptera frugiperda (fall armyworm) Sf9 cells at 0.1 to 10 uM after 4 hr by luminescent cell viability assay
[4] = tested on: Sf9; assay: Reduction of ATP level in Spodoptera frugiperda (fall armyworm) Sf9 cells at 10 uM after 6 to 24 hr by luminescent cell viability assay
[5] = tested on: Sf9; assay: Reduction of ATP level in Spodoptera frugiperda (fall armyworm) Sf9 cells after 20 to 24 hr by luminescent cell viability assay
[6] = tested on: Sf9; assay: Reduction of ATP level in Spodoptera frugiperda (fall armyworm) Sf9 cells at 1 to 10 uM after 4 hr by luminescent cell viability assay
[7] = tested on: Sf9; assay: Reduction of ATP level in Spodoptera frugiperda (fall armyworm) Sf9 cells at 0.01 uM after 24 hr by luminescent cell viability assay
[8] = tested on: Sf9; assay: Cytotoxicity against Spodoptera frugiperda (fall armyworm) Sf9 cells at 0.01 uM
[9] = tested on: Sf9; assay: Reduction of ATP level in Spodoptera frugiperda (fall armyworm) Sf9 cells at 0.1 uM after 24 hr by luminescent cell viability assay
[10] = tested on: Sf9; assay: Reduction of ATP level in Spodoptera frugiperda (fall armyworm) Sf9 cells at 1 uM after 8 hr by luminescent cell viability assay
[11] = tested on: Sf9; assay: Reduction of ATP level in Spodoptera frugiperda (fall armyworm) Sf9 cells at 1 to 10 uM after 20 to 24 hr by luminescent cell viability assay
[12] = tested on: Sf9; assay: Reduction of ATP level in Spodoptera frugiperda (fall armyworm) Sf9 cells at 10 uM after 2 hr by luminescent cell viability assay
[13] = tested on: Sf9; assay: Reduction of ATP level in Spodoptera frugiperda (fall armyworm) Sf9 cells at 0.01 to 10 uM after 4 hr by luminescent cell viability assay
[14] = tested on: Sf9; assay: Reduction of ATP level in Spodoptera frugiperda (fall armyworm) Sf9 cells at 10 uM after 4 hr by luminescent cell viability assay

## COc1ccc(C[C@H]2NC[C@H](O)[C@H]2OC(C)=O)cc1
[1]
  Activity: inactive
[2]
  Activity: Active

## C=C(C)[C@H]1Cc2c(ccc3c2O[C@@H]2COc4cc(OC)c(OC)cc4[C@@H]2C3=O)O1
[3]
  Activity: inactive

## O=c1[nH]cc(F)c(=O)[nH]1
[4]
  Activity: inactive

## N#CC(C#N)=NNc1ccccc1Cl
[3]
  Activity: Active
[5]
  Activity: Dose-dependent effect

## CCOCn1c(-c2ccc(Cl)cc2)c(C#N)c(Br)c1C(F)(F)F
[5]
  Activity: Dose-dependent effect
[6]
  Activity: Active

## FC(F)(F)c1ccc(OCCCOc2c(Cl)cc(OCC=C(Cl)Cl)cc2Cl)nc1
[7]
  Activity: inactive
[8]
  Activity: inactive
[5]
  Activity: Dose-dependent effect
[9]
  Activity: Active
[10]
  Activity: Active
[11]
  Activity: Active
[12]
  Activity: Active

## Cc1nn(C)c(Oc2ccccc2)c1/C=N/OCc1ccc(C(=O)OC(C)(C)C)cc1
[13]
  Activity: inactive

## CCCCCCCCCCCCC1=C(OC(C)=O)C(=O)c2ccccc2C1=O
[14]
  Activity: Active
[5]
  Activity: Dose-dependent effect
